According to patent US8952054B2, “Small molecule inhibitors of MUC1 and methods of identifying the same” (Dana-Farber Cancer Institute, Inc., priority 2010, dated 2015):

Tests used:
[1] = tested on: MUC1 promoter; test: MUC1-C occupancy on the MUC1 promoter; format: cell-based
[2] = tested on: MUC1-expressing cancer cells; test: Secondary screen against MUC1-expressing cancer cells in vitro; format: cell-based; conditions: legend: ZR-75-1 breast carcinoma cells, 2 days, anti-MUC1-C immunoblot
Protocol: ZR-75-1 breast carcinoma cells were treated with […] Kaempterol for 2 days. Total cell lysates were then analyzed by immunoblotting with anti-MUC1-C antibody (FIG. 17A) or with anti-Actin antibodies (FIG. 17B).
Initial screens were performed in the presence of compounds at a concentration of 100 μM.

[3] = target: T1, MUC1-CD (Homo sapiens, UniProt P15941); test: Plate-based MUC1-CD dimerization inhibition assay (primary screening); format: biochemical
T1 construct: the 72 aa cytoplasmic domain (CD); His; made in house
T1 sequence (P15941 1184-1255 limits assumed): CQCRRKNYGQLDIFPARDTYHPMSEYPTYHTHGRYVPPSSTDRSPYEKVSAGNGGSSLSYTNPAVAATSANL
Protocol: FIG. 6—Schematic Illustration of Primary HTS Screening Assay for MUC1-CD Dimerization. MUC1-CD protein was coated on a 96 well plate and then incubated with Biotinylated MUC1-CD that binds to non-biotinylated MUC1-CD protein by dimer formation. Bound biotinylated MUC1-CD protein was detected by incubation with Streptavin-HRP+peroxidase substrate system.
FIGS. 11A-C—Identification of MUC1-CD dimerization inhibitors in a small molecule screen. (FIG. 11A) Schematic representation of the MUC1-C subunit with the 58 amino acid (aa) extracellular domain (ECD), the 28 aa transmembrane domain (TD) and the 72 aa cytoplasmic domain (CD; SEQ ID NO: 1). The sequence of MUC1-CD is included with highlighting of the CQC dimerization motif. (FIG. 11B) The assay for identification of MUC1-CD dimerization inhibitors is depicted with the following steps: (i) coating of MUC1-CD onto a microplate, (ii) adding soluble biotinylated MUC1-C and […] compound, and (iii) addition of streptavidin-HRP and then peroxide with conversion by HRP to a blue color. The signal is measured by EnVision and proportional to the amount of bound biotin-labeled MUC1-CD.
FIGS. 12A-D—Apigenin is an inhibitor of MUC1-CD dimerization in vitro and in cells. (FIG. 12A) Structures of apigenin and its analogue baicalein. Using the in vitro screening assay, dimerization of MUC1-CD was assessed in the presence of 100 μM apigenin or 100 μM baicalein each dissolved in 0.1% DMSO. The results (mean±SD of 3 determinations) are expressed as percentage of control dimerization in the presence of DMSO alone. (FIG. 12B) MUC1-CD dimerization was assessed in the presence of the indicated concentrations of apigenin in the in vitro screening assay. […] (FIG. 12C) Soluble MUC1-CD was incubated in the presence of 1% DMSO, 1 mM apigenin or 1 mM baicalein for 1 h at room temperature. Monomers and dimmers were assessed by electrophoresis in a non-reducing gel and immunoblotting with anti-MUC1-C. (FIG. 12D) 293 cells were transiently transfected to express an empty vector or GFP-MUC1-CD and Flag-MUC1-CD. At six hours after transfection, the cells were left untreated, and treated with 75 μM apigenin or baicalein for 3 days. Whole-cell lysates were precipitated with anti-Flag, and the precipitates were immunoblotted with the indicated antibodies.
Multi-well (96- or 384-well) plates are coated with non-biotinylated MUC1-CD, and biotinylated MUC1-CD is added to the plates to initiate MUC1-CD dimerization or oligomerization. A luminescent substrate for biotin binding is added to the plate, followed by washing. Resulting fluorescence is detected by luminescence detection at absorbance 405 nm. A complete schematic illustration of this assay is described in […]. Test compounds are added at multiple concentrations to the plates and, following incubation and washing, the plates are read for luminescent detection. The formation of MUC1-CD dimers is detected.
To develop a HTS assay for compounds that inhibit MUC1-CD dimerization, the inventors generated purified His-tagged MUC1-CD protein. They also generated a biotin-labeled His-tagged MUC1-CD protein using a standard biotinylation kit. Biotinylated and non-biotinylated proteins were purified through Nickel columns.
The inventors coated 96- or 384-well plates with non-biotinylated MUC1-CD protein and added biotinylated MUC1-CD protein to the plates to initiate MUC1-CD/MUC1-CD dimerization or oligomerization. They then added a substrate to the plate which will bind to the biotinylated protein (only at the dimer or oligomer state) and the resultant fluorescence was detected by luminescence detection at absorbance 405 nm. A complete schematic illustration of this assay is described in FIG. 6.
Individual compounds from the chemical libraries were then added at multiple concentrations (0.01 μM to 100 μM) to the plates and following incubation and washing, the plates were read by luminescence detection at […]. […]

[4] = target: T2, MUC1-C (Homo sapiens, UniProt P15941); test: Immunoblot of whole cell and nuclear MUC1-C levels in ZR-75-1 cells; format: cell-based; design: Human ZR-75-1 and MCF-7 breast cancer cells overexpress endogenous MUC1; endogenous in cells; host or cells: ZR-75-1; MCF-7; conditions: ZR-75-1, 5 μM peptide, 3 d; for nuclear MUC1-C levels: nuclear lysates; for cellular MUC1-C levels: whole cell lysates
T2 sequence (P15941 1098-1255 limits assumed): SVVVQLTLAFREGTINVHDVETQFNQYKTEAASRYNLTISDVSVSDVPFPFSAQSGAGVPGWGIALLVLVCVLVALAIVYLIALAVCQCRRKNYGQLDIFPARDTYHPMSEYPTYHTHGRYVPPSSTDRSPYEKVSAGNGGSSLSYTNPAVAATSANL
Protocol: FIGS. 2A-C. MUC1/CQC peptide blocks nuclear localization of MUC1-C. (FIG. 2A) ZR-75-1 cells were incubated with 5 μM FITC-labeled MUC1/CQC peptide for the indicated times and then analyzed by flow cytometry. The mean fluorescence index (MFI) is included in each of the panels. (FIGS. 2B-C) ZR-75-1 (FIG. 2B) and MCF-7 (FIG. 2C) cells were incubated in the presence of 5 μM MUC1/CQC or MUC1/AQA peptide for 3 d. Whole cell lysates (WCL) (left panels) and nuclear lysates (right panels) were immunoblotted with the indicated antibodies.
Whole cell and nuclear lysates were prepared as described (Leng et al., 2007). Soluble proteins were subjected to immunoprecipitation with anti-Flag (Sigma, St. Louis, Mo.). Immunoprecipitates and soluble proteins were analyzed by immunoblotting with anti-His (Cell Signaling Technology, Danvers, Mass.), anti-GFP (Millipore, Danvers, Mass.), anti-Flag, anti-MUC1-C (Ab1; NeoMarkers, Fremont, Calif.), anti-lamin B (EMD, La Jolla, Calif.) or anti-β-actin (Sigma). Reactivity was detected with horseradish peroxidase-conjugated second antibodies and chemiluminescence.

[5] = 100 μM, compared to vehicle (DMSO)

| inhibition of MUC1-CD dimerization [3, 5] | nuclear MUC1-C levels [4] | cellular MUC1-C levels [4] | inhibition at 100 µM [3, 5] [%] | initial library screen result ([3]; library of Table 1) | IC50 ([3]; range of concentrations, read-out: 50% inhibition (IC50) of MUC1-CD dimerization) [µM] | Compound | MUC1-C occupancy on the MUC1 promoter [1] | inhibition (FIGS. 17A-B) [2] |
| --- | --- | --- | --- | --- | --- | --- | --- | --- |
| little if any effect | – | – | – | – | – | O=c1cc(-c2ccccc2)oc2cc(O)c(O)c(O)c12 [Baicalein, 5,6,7-trihydroxyflavone, reference compound] | not | did not |
| – | not | no effect | – | – | – | MUC1/AQA: control peptide in which the CQC motif was altered to AQA (SEQ ID NO: 11) (AQARRKNYGQLDIFP) [reference compound] | – | – |
| – | – | – | ~80 | MUC1 dimerization inhibitory compounds | 76 | O=c1cc(-c2ccc(O)cc2)oc2cc(O)cc(O)c12 [Apigenin, 4′,5,7-trihydroxyflavone] | blocked MUC1-C occupancy on the MUC1 promoter | showed inhibition |
| – | decreases in nuclear MUC1-C levels | no effect | – | – | – | CC[C@H](C)[C@H](NC(=O)[C@H](CC(=O)O)NC(=O)[C@H](CC(C)C)NC(=O)[C@H](CCC(N)=O)NC(=O)CNC(=O)[C@H](Cc1ccc(O)cc1)NC(=O)[C@H](CC(N)=O)NC(=O)[C@H](CCCCN)NC(=O)[C@H](CCCNC(=N)N)NC(=O)[C@H](CCCNC(=N)N)NC(=O)[C@H](CS)NC(=O)[C@H](CCC(N)=O)NC(=O)[C@H](CS)NC(=O)[C@@H](CCCNC(=N)N)NC(=O)[C@@H](CCCNC(=N)N)NC(=O)[C@@H](CCCNC(=N)N)NC(=O)[C@@H](CCCNC(=N)N)NC(=O)[C@@H](CCCNC(=N)N)NC(=O)[C@@H](CCCNC(=N)N)NC(=O)[C@@H](CCCNC(=N)N)NC(=O)[C@@H](CCCNC(=N)N)NC(=O)[C@H](N)CCCNC(=N)N)C(=O)N[C@@H](Cc1ccccc1)C(=O)N1CCC[C@H]1C(=O)O [MUC1/CQC] | – | – |
